Test results published in patent EP0079167A1, “A carbapenem compound, preparation and use” (BEECHAM GROUP PLC, priority 1981, dated 1983).
In brackets after ≈: the same amount, converted by molar mass. Read-outs that look alike come from different tables or passages of the source.

What was measured:
[1] = Tissue stability in mouse kidney homogenate (HPLC); type: in vitro ADME; conditions: 37°C, stability relative to MM13902 taken as standard (1.0), values >1.0 = fold increase in stability
Description: (§1) A preparation of 2% mouse kidney homogenate was mixed with equal volumes of a 200 µg/ml solution of the antibiotic to be tested. The stability of the antibiotic at 37 °C was studied by removal of aliquots and subjecting them to a high pressure liquid chromatographic analysis. The values are given in figures relative to that obtained for MM13902 of U.K. Patent No. 1489235. The values are given in figures relative to that obtained for MM13902 which is taken as standard (1.0). Values greater than 1.0 reflect the fold increase in stability relative to MM13902.

[2] = Tissue stability in human kidney (HPLC); type: in vitro ADME; conditions: stability relative to MM13902 taken as standard (1.0), values >1.0 = fold increase in stability
Description: as §1

Staphylococcus aureus = assay: Antibacterial activity in vitro (MIC); type: cell-based
Escherichia coli = assay: Antibacterial activity in vitro (MIC); type: cell-based
Klebsiella aerogenes = assay: Antibacterial activity in vitro (MIC); type: cell-based
E. coli E96R+ = assay: Antibacterial activity in vivo against experimental mouse infection; conditions: Escherichia coli, read-out: CD50
Description: (§2) CD50 mg/kg (total dose) - Compounds dosed at 1 and 5 hours past infection.

Staph. aureus Smith = assay: as above; conditions: Staphylococcus aureus; mouse infection with Staph. aureus Smith; total dose; dosed at 1 and 5 hours past infection; read-out: CD50 (the source's name)
Description: as §2

[3] = Escherichia coli Ba78R+, read-out: MIC
[4] = Escherichia coli JT4R+, read-out: MIC
[5] = Klebsiella aerogenes VA2R+ (printed Va2R+ for Compound B)

## CC(=O)N/C=C/SC1=C(C(=O)O)N2C(=O)[C@@H]([C@H](C)OS(=O)(=O)O)[C@H]2C1 [MM13902]
[1]
  Tissue Stability Values: 1.0
[2]
  Tissue Stability Values: 1.0

## C[C@H](O)[C@H]1C(=O)N2C(C(=O)O)=C(S/C=C\C(=O)OCCN)C[C@H]12 [Compound C]
Staphylococcus aureus; Staphylococcus aureus 1517
  MIC: 6.2 µg/mL (≈ 18.1 µM)
Staphylococcus aureus; Staphylococcus aureus Russell
  MIC: 0.4 µg/mL (≈ 1.17 µM)
Escherichia coli; Escherichia coli JT39, read-out: MIC
  MIC: 3.1 µg/mL (≈ 9.05 µM)
Klebsiella aerogenes; Klebsiella aerogenes A
  MIC: 3.1 µg/mL (≈ 9.05 µM)

## C[C@H](O)[C@@H]1C(=O)N2C(C(=O)O)=C(S/C=C\C(=O)OCCN)C[C@H]12 [Compound A]
Staphylococcus aureus; ATCC25923, Staphylococcus aureus ATCC 25923
  MIC: 0.1 µg/mL (≈ 0.292 µM)
Staphylococcus aureus; Staphylococcus aureus 68/8484
  MIC: 0.2 µg/mL (≈ 0.584 µM)
Staphylococcus aureus; Staphylococcus aureus 150+
  MIC: 0.2 µg/mL (≈ 0.584 µM)
Staphylococcus aureus; Staphylococcus aureus MB9+
  MIC: 0.2 µg/mL (≈ 0.584 µM)
Staphylococcus aureus; Staphylococcus aureus N36MR
  MIC: 0.4 µg/mL (≈ 1.17 µM)
Staphylococcus aureus; Staphylococcus aureus N71MR
  MIC: 0.8 µg/mL (≈ 2.34 µM)
Staphylococcus aureus; Staphylococcus aureus Smith
  MIC: 0.2 µg/mL (≈ 0.584 µM)
Staphylococcus aureus; Staphylococcus aureus T71+
  MIC: 0.1 µg/mL (≈ 0.292 µM)
Staphylococcus aureus; Staphylococcus aureus T100
  MIC: 0.2 µg/mL (≈ 0.584 µM)
E. coli E96R+
  ED50: 66 mg/kg
Staph. aureus Smith
  ED50: 4.5 mg/kg
Escherichia coli
  MIC: 0.8 µg/mL (≈ 2.34 µM)
Escherichia coli; [3]
  MIC: 1.6 µg/mL (≈ 4.67 µM)
Escherichia coli; [4]
  MIC: 6.2 µg/mL (≈ 18.1 µM)
Escherichia coli; Escherichia coli JT20R+, read-out: MIC
  MIC: 6.2 µg/mL (≈ 18.1 µM)
Klebsiella aerogenes; Klebsiella aerogenes 185R+
  MIC: 3.1 µg/mL (≈ 9.05 µM)
Klebsiella aerogenes; Klebsiella aerogenes 192R+
  MIC: 6.2 µg/mL (≈ 18.1 µM)
Klebsiella aerogenes; Klebsiella aerogenes Ba95R+
  MIC: 6.2 µg/mL (≈ 18.1 µM)
Klebsiella aerogenes; [5]
  MIC: 25 µg/mL (≈ 73 µM)
[1]
  Tissue Stability Values: 1.3
[2]
  Tissue Stability Values: 1.2

## C[C@@H](O)[C@H]1C(=O)N2C(C(=O)O)=C(S/C=C\C(=O)OCCN)C[C@H]12 [Compound B, (5R.6S)-3-[(Z)-2-(2-aminoethyloxycarbonyl)ethenylthio]-6-[(R)-1-hydroxyethyl]-7-oxo-1-azabicyclo[3.2.0]hept-2-ene-2-carboxylic acid]
Staphylococcus aureus; Staphylococcus aureus MANSTK 33269
  MIC: 0.4 µg/mL (≈ 1.17 µM)
Staphylococcus aureus; Staphylococcus aureus T2p-
  MIC: 0.1 µg/mL (≈ 0.292 µM)
Staphylococcus aureus; Staphylococcus aureus T97p+
  MIC: 0.1 µg/mL (≈ 0.292 µM)
Staphylococcus aureus; Staphylococcus aureus T100p-
  MIC: 0.02 µg/mL (≈ 0.0584 µM)
Staphylococcus aureus; Staphylococcus aureus T118p+
  MIC: 0.05 µg/mL (≈ 0.146 µM)
Staphylococcus aureus; Staphylococcus aureus T120p-
  MIC: 0.02 µg/mL (≈ 0.0584 µM)
E. coli E96R+
  ED50: 13 mg/kg
Staph. aureus Smith
  ED50: < 0.4 mg/kg
Escherichia coli; [3]
  MIC: 0.1 µg/mL (≈ 0.292 µM)
Escherichia coli; [4]
  MIC: 0.1 µg/mL (≈ 0.292 µM)
Escherichia coli; Escherichia coli JT56R+, read-out: MIC
  MIC: 0.2 µg/mL (≈ 0.584 µM)
Escherichia coli; Escherichia coli JT177R, read-out: MIC
  MIC: 0.2 µg/mL (≈ 0.584 µM)
Klebsiella aerogenes; Klebsiella aerogenes Ba95R+
  MIC: 0.4 µg/mL (≈ 1.17 µM)
Klebsiella aerogenes; Klebsiella aerogenes Du185R
  MIC: 0.2 µg/mL (≈ 0.584 µM)
Klebsiella aerogenes; Klebsiella aerogenes Du192R
  MIC: 0.2 µg/mL (≈ 0.584 µM)
Klebsiella aerogenes; [5]
  MIC: 0.4 µg/mL (≈ 1.17 µM)
[1]
  Tissue Stability Values: 2.4
[2]
  Tissue Stability Values: 2.2
